Test results from PubChem BioAssay (NCI).
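Results reflect a 48-hour exposure of cells in 96-well plates to compound at five concentrations. TGI is the concentration that stops growth completely.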

Legend:
Experiment in all cases: NCI tumour cell line growth inhibition, 48 h
[1] = tested on: 786-0 renal
[2] = tested on: A498 renal
[3] = tested on: A549 NSCLC
[4] = tested on: ACHN renal
[5] = tested on: CAKI-1 renal
[6] = tested on: CCRF-CEM leukemia
[7] = tested on: COLO 205 colon
[8] = tested on: DLD-1 colon
[9] = tested on: DMS 114 small cell lung
[10] = tested on: DMS 273 small cell lung
[11] = tested on: EKVX NSCLC
[12] = tested on: HCT-116 colon
[13] = tested on: HCT-15 colon
[14] = tested on: HL-60(TB) leukemia
[15] = tested on: HOP-18 NSCLC
[16] = tested on: HOP-62 NSCLC
[17] = tested on: HOP-92 NSCLC
[18] = tested on: HT29 colon
[19] = tested on: IGROV1 ovarian
[20] = tested on: K-562 leukemia
[21] = tested on: KM12 colon
[22] = tested on: KM20L2 colon
[23] = tested on: LOX IMVI melanoma
[24] = tested on: LXFL 529 NSCLC
[25] = tested on: M14 melanoma
[26] = tested on: M19-MEL melanoma
[27] = tested on: MALME-3M melanoma
[28] = tested on: MOLT-4 leukemia
[29] = tested on: NCI-H226 lung
[30] = tested on: NCI-H23 lung
[31] = tested on: NCI-H460 lung
[32] = tested on: NCI-H522 lung
[33] = tested on: OVCAR-3 ovarian
[34] = tested on: OVCAR-4 ovarian
[35] = tested on: OVCAR-5 ovarian
[36] = tested on: OVCAR-8 ovarian
[37] = tested on: RPMI-8226 leukemia
[38] = tested on: RXF 393 renal
[39] = tested on: SF-268 CNS
[40] = tested on: SF-295 CNS
[41] = tested on: SF-539 CNS
[42] = tested on: SK-MEL-2 melanoma
[43] = tested on: SK-MEL-28 melanoma
[44] = tested on: SK-MEL-5 melanoma
[45] = tested on: SK-OV-3 ovarian
[46] = tested on: SN12C renal
[47] = tested on: SNB-19 CNS
[48] = tested on: SNB-75 CNS
[49] = tested on: SNB-78 CNS
[50] = tested on: SW-620 colon
[51] = tested on: TK-10 renal
[52] = tested on: U251 CNS
[53] = tested on: UACC-257 melanoma
[54] = tested on: UACC-62 melanoma
[55] = tested on: UO-31 renal
[56] = tested on: HCC-2998 colon
[57] = tested on: SR leukemia
[58] = tested on: XF 498 CNS

Structure (SMILES): c1ccc2c(c1)OCCOCCOc1ccccc1OCCO2
- TGI [1]: > 100 µM
- TGI [2]: > 100 µM
- TGI [3]: > 100 µM
- TGI [4]: > 100 µM
- TGI [5]: > 100 µM
- TGI [6]: > 100 µM
- TGI [7]: > 100 µM
- TGI [8]: > 100 µM
- TGI [9]: > 100 µM
- TGI [10]: > 100 µM
- TGI [11]: > 100 µM
- TGI [12]: > 100 µM
- TGI [13]: > 100 µM
- TGI [14]: 69.1 µM
- TGI [15]: > 100 µM
- TGI [16]: > 100 µM
- TGI [17]: > 100 µM
- TGI [18]: > 100 µM
- TGI [19]: > 100 µM
- TGI [20]: > 100 µM
- TGI [21]: > 100 µM
- TGI [22]: 87.7 µM
- TGI [23]: > 100 µM
- TGI [24]: > 100 µM
- TGI [25]: > 100 µM
- TGI [26]: > 100 µM
- TGI [27]: 88.2 µM
- TGI [28]: > 100 µM
- TGI [29]: > 100 µM
- TGI [30]: > 100 µM
- TGI [31]: > 100 µM
- TGI [32]: > 100 µM
- TGI [33]: 70 µM
- TGI [34]: > 100 µM
- TGI [35]: > 100 µM
- TGI [36]: > 100 µM
- TGI [37]: 70.2 µM
- TGI [38]: > 100 µM
- TGI [39]: > 100 µM
- TGI [40]: > 100 µM
- TGI [41]: > 100 µM
- TGI [42]: > 100 µM
- TGI [43]: > 100 µM
- TGI [44]: > 100 µM
- TGI [45]: > 100 µM
- TGI [46]: > 100 µM
- TGI [47]: > 100 µM
- TGI [48]: > 100 µM
- TGI [49]: > 100 µM
- TGI [50]: 77.1 µM
- TGI [51]: > 100 µM
- TGI [52]: > 100 µM
- TGI [53]: > 100 µM
- TGI [54]: > 100 µM
- TGI [55]: > 100 µM

Structure (SMILES): CCCCCCCCCCCCCCCCCCC1=C(O)C(=O)C=C(OC)C1=O
- TGI [1]: > 100 µM
- TGI [2]: > 100 µM
- TGI [3]: > 100 µM
- TGI [4]: > 100 µM
- TGI [5]: > 100 µM
- TGI [7]: > 100 µM
- TGI [8]: > 100 µM
- TGI [9]: 61.8 µM
- TGI [10]: > 100 µM
- TGI [11]: > 100 µM
- TGI [56]: > 100 µM
- TGI [12]: > 100 µM
- TGI [13]: 97.5 µM
- TGI [14]: 80.8 µM
- TGI [15]: > 100 µM
- TGI [16]: > 100 µM
- TGI [17]: > 100 µM
- TGI [18]: > 100 µM
- TGI [19]: > 100 µM
- TGI [21]: > 100 µM
- TGI [22]: > 100 µM
- TGI [24]: > 100 µM
- TGI [25]: > 100 µM
- TGI [26]: > 100 µM
- TGI [27]: > 100 µM
- TGI [28]: > 100 µM
- TGI [29]: > 100 µM
- TGI [30]: > 100 µM
- TGI [31]: > 100 µM
- TGI [32]: 82.2 µM
- TGI [33]: > 100 µM
- TGI [34]: > 100 µM
- TGI [35]: > 100 µM
- TGI [36]: > 100 µM
- TGI [38]: > 100 µM
- TGI [39]: > 100 µM
- TGI [40]: > 100 µM
- TGI [41]: > 100 µM
- TGI [42]: 76.5 µM
- TGI [43]: > 100 µM
- TGI [44]: > 100 µM
- TGI [45]: > 100 µM
- TGI [46]: > 100 µM
- TGI [47]: > 100 µM
- TGI [48]: > 100 µM
- TGI [49]: > 100 µM
- TGI [57]: > 100 µM
- TGI [50]: > 100 µM
- TGI [51]: > 100 µM
- TGI [52]: > 100 µM
- TGI [53]: > 100 µM
- TGI [54]: > 100 µM
- TGI [55]: > 100 µM
- TGI [58]: > 100 µM
